Data on 14 compounds can be found in patent US20240018105A1, “TROPOLONE DERIVATIVES AND TAUTOMERS THEREOF FOR IRON REGULATION IN ANIMALS” (Kinesid Therapeutics, Inc., priority 2019, published 2024).

Molecules are shown by their SMILES.

The nature of one data set: Mouse 6-hour PK study. The conditions noted are these: in vivo. The source says: (§1) Compounds of the present disclosure were further evaluated in standard in vitro and in vivo Absorption, Distribution, Metabolism, Excretion (ADME) and Drug Metabolism and Pharmacokinetics (DMPK) assays to assess drug profiles important for further drug development.
(§2) Such assessments included human and mouse liver microsomal stability assays as well as 6-hour mouse PK studies.

Data set [1] deals with DMT1-deficient Caco-2 cells. The experiment in a line: shDMT1-Caco2 55Fe transport assay. It counts as cell-based. The source says:
Assay 2: shDMT1-Caco2 ^55Fe Transport Assay to Assess Ligand Ability in Transporting Fe (III)
Cells: DMT1-deficient Caco-2 cells (alias: “shDMT1,” or “4A” cells) were from Grillo et al. Science, 2017, and were cryopreserved in liquid nitrogen prior to use.
Reagents and supplies: ^55FeCl3 was obtained from PerkinElmer (Boston, MA). Iron(III) chloride (FeCl3) hexahydrate was obtained from Sigma. Dulbecco's Modified Eagle Medium (DMEM), fetal bovine serum (FBS), L-glutamine, MEM nonessential amino acids, penicillin-streptomycin, G418, formic acid, methanol, high-purity water, ammonium formate, dimethyl sulfoxide (DMSO) were purchased from Fisher Scientific. Propranolol, atenolol and carbutamide were obtained from Sigma-Aldrich Chemical Company (St Louis, MO). Scintillation cocktail was obtained from Research Product International Co. (Mount Prospect, IL). Stericup filter system (PES membrane, 0.22 um pore size) was purchased from Fisher Scientific. Coming item #3378 24-well transwell insert plates. Test articles: known compounds hinokitiol and deferiprone were purchased from Sigma. They are tested side by side with the small molecule ligands disclosed in this application. DMSO stocks (10 mM, which is 1,000× of the 10 μM dose level) of hinokitiol or test articles were prepared. A stock solution of 25 mM deferiprone in DMSO was prepared. The DMSO stock solutions were stored at −20° C. or below when not in use.
The growth medium was prepared according to the following table
Apical media (serum free DMEM, 10 mM MES, pH 6.5) was prepared. Apical master mix media was prepared fresh with the addition of 200 nM ^55Fe before each experiment. For the negative control propranolol and atenolol wells, 200 nM of non-radioactive iron was used.
The basolateral media was serum-free DMEM, 10 mM HEPES, 2% bovine serum albumin (BSA), pH 7.4.
For each experiment, cells were seeded into the 24-well transwell plates (0.5 mL of 50,000 cells/mL) with growth media. The basolateral companion plate was loaded with 1 mL of growth media. After 12-24 hr, both the apical and basolateral chamber were replaced with growth media. The apical media was changed 3× per week for 21-28 days, including a media change exactly 48 hr before the assay date.
On the assay day, the TEER values were measured and the average TEER values was obtained. Individual wells with TEER vaule >35% lower than the average of all wells were excluded. For the qualified wells, the apical layer (twice) and basolaterial (once) chambers were washed with PBS. The basolateral companion plate was then filled with 1 mL of basolateral media. Via addition down the side-wall of the apical well, 300 μL per well of the apical assay master mix, with the indicated dose level of test article, was added. Each dose was tested in triplicate. The plates were incubated (5% CO2 and 90% humidity at 37° C.) for the indicated timepoints. At each indicated timepoint, the basolateral supernatant was gently mixed via pipetting, and 200 μL of the basolateral supernatant was transferred to scintillation vials. To each scintillation counting vial, 5 mL of scintillation cocktail fluid was added. For each scintillation vial, the radioactivity (CPM) was determined with liquid scintillation counter LS6500. The counting time per vial was 5 min.
All raw CPM values are divided by the average value of blank DMSO solution to give a fold of change above the DMSO value. The mean and standard deviation of each compound at each concentration level and at each time point measured was calculated to give the fold change (fc) value.
For rank order compounds, the fc value of a ligand at 4 h time point is further divided by the fold change (fc) value of hinokitiol (a positive control compound) at an equimolar concentration to arrive at the FC (normalized fold of change) value. Data reported in Tables 1 and 2 is 4 hr time point FC=fc-ligand @ 3 uM/fc-hino @ 3 uM, and FC hino=1.
Background: Caco-2 cells form a polarised layer with tight junctions and transporters.

Data set [2] in a line: Mouse liver microsomal stability assay. The format is in vitro ADME.
From the text: as §1, §2
On the technique in general: Liver microsomes are a subcellular fraction often used to study metabolism.

A short description of data set [3]: Ligand facilitated Fe(III) efflux from liposomes. The conditions noted are these: 10 uM ligand concentration. Put shortly:
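POPC:cholesterol liposomes loaded with Fe(III)-citrate (pH 7.0), used at 1 mM phosphorus with 1 mM ferrozine outside. Ligand at 40–1.25 μM final, in triplicate; absorbance at 562 nm read every 60 s for 120 min. Efflux rate k from single-phase association fit, averaged over triplicates.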

Data set [4] in a line: Human liver microsomal stability assay. It counts as in vitro ADME.
From the text: as §1, §2

In general, AUC(0-t) refers to the area under the concentration-time curve up to a stated or last time point. Read a high AUC(0-t) as high exposure. The term Cmax denotes the peak of the concentration-time curve. Consider `O=c1ccccc(-c2cscn2)c1O` [Ex.76, 2-hydroxy-3-(thiazol-4-yl)cyclohepta-2,4,6-trien-1-one], for which, in the data set “Mouse 6-hour PK study”, the AUC(0-t) fell in the range of 500 to 1500 ng·h/mL, the Cmax is 1500 to 5000 ng/mL, the half-life is below 75 min and the “mouse 6-hour PK properties compared to hinokitiol” value is listed as “one or more improved mouse 6-hour PK properties compared to hinokitiol”. The “Caco2 shDMT1 transport FC @ 3 μM, 4h” value in data set [1] (Caco-2) was 0.5-1.
In data set [2] (mouse, microsomes), `Cc1ccc(-c2cncc(F)c2)cc(O)c1=O` [Ex.16, 4-(5-fluoropyridin-3-yl)-2-hydroxy-7-methylcyclohepta-2,4,6-trien-1-one] yielded a half-life of 83 min and a microsomal CLint of 16.7 µL/min/mg. Further, in “Mouse 6-hour PK study”, the AUC(0-t) was above 20000 ng·h/mL, the Cmax lay within 5000 to 20000 ng/mL, the half-life lay within 75 to 299 min and the “mouse 6-hour PK properties compared to hinokitiol” value is reported as “one or more improved mouse 6-hour PK properties compared to hinokitiol”. Moreover, in data set [1] (Caco-2), the “Caco2 shDMT1 transport FC @ 3 μM, 4h” value is listed as 0.5-1. The “Liposome Fe transport kefflux at 10 10 μM” value in data set [3] (Table 1) was 10-25. In data set [4] (human, microsomes), this compound gave a half-life above 120 min and a microsomal CLint below 11.6 µL/min/mg.
In data set [2] (mouse, microsomes), `Cc1ncc(-c2cccc(=O)c(O)c2)c(C)n1` [Ex.32, 4-(2,4-dimethylpyrimidin-5-yl)-2-hydroxycyclohepta-2,4,6-trien-1-one] displayed a half-life above 120 min and a microsomal CLint below 11.6 µL/min/mg. In addition, in “Mouse 6-hour PK study”, the AUC(0-t) lay in the range of 5000 to 20000 ng·h/mL, the Cmax was in the range of 1500 to 5000 ng/mL, the half-life lay within 75 to 299 min and the “mouse 6-hour PK properties compared to hinokitiol” value is “one or more improved mouse 6-hour PK properties compared to hinokitiol”. The “Caco2 shDMT1 transport FC @ 3 μM, 4h” value in data set [1] (Caco-2) was 0.01-0.5. Moreover, the “Liposome Fe transport kefflux at 10 10 μM” value in data set [3] (Table 1) was 5-7.5. In data set [4] (human, microsomes), this compound returned a half-life above 120 min and a microsomal CLint below 11.6 µL/min/mg.
For `O=c1ccccc(Oc2ccc(F)cc2F)c1O` [Ex.67, 3-(2,4-difluorophenoxy)-2-hydroxycyclohepta-2,4,6-trien-1-one], in the data set “Mouse 6-hour PK study”, the AUC(0-t) was 1500 to 5000 ng·h/mL, the Cmax is 1500 to 5000 ng/mL, the half-life lay in the range of 75 to 299 min and the “mouse 6-hour PK properties compared to hinokitiol” value was “one or more improved mouse 6-hour PK properties compared to hinokitiol”. Further, the “Caco2 shDMT1 transport FC @ 3 μM, 4h” value in data set [1] (Caco-2) is given as 0.01-0.5. Also, in data set [3] (Table 2), the “Liposome Fe transport Kefflux at 10 μM” value is below 0.1.
With `O=c1cccc(-c2cncc(F)c2)cc1O` [Ex.1, 4-(5-fluoropyridin-3-yl)-2-hydroxycyclohepta-2,4,6-trien-1-one], in data set [2] (mouse, microsomes), the half-life was above 120 min and the microsomal CLint was below 11.6 µL/min/mg. Further, in “Mouse 6-hour PK study”, the AUC(0-t) was 5000 to 20000 ng·h/mL, the Cmax lay within 5000 to 20000 ng/mL, the half-life is below 75 min and the “mouse 6-hour PK properties compared to hinokitiol” value is listed as “one or more improved mouse 6-hour PK properties compared to hinokitiol”. Besides, the “Caco2 shDMT1 transport FC @ 3 μM, 4h” value in data set [1] (Caco-2) was 0.01-0.5. For the same compound, the “Liposome Fe transport kefflux at 10 10 μM” value in data set [3] (Table 1) is listed as 5-7.5. In data set [4] (human, microsomes), this compound returned a half-life above 120 min and a microsomal CLint below 11.6 µL/min/mg.
For `O=c1ccccc(-c2ccc(F)cn2)c1O` [Ex.26, 3-(5-fluoropyridin-2-yl)-2-hydroxycyclohepta-2,4,6-trien-1-one], in data set [2] (mouse, microsomes), the half-life was above 150 min and the microsomal CLint was below 25 µL/min/mg. Also, in the data set “Mouse 6-hour PK study”, the area under the curve AUC(0-t) is 1500 to 5000 ng·h/mL, the Cmax was in the range of 1500 to 5000 ng/mL, the half-life was in the range of 75 to 299 min and the “mouse 6-hour PK properties compared to hinokitiol” value was “one or more improved mouse 6-hour PK properties compared to hinokitiol”. In data set [1] (Caco-2), the “Caco2 shDMT1 transport FC @ 3 μM, 4h” value is 0.01-0.5. Also, the “Liposome Fe transport kefflux at 10 10 μM” value in data set [3] (Table 1) is 10-25. For the same compound, in data set [4] (human, microsomes), the half-life was above 150 min and the microsomal CLint is below 25 µL/min/mg. In addition, the “clearence half-life (t1/2) and/or intrinsic clearence (CLint) compared to hinokitiol” value in data set [4] (microsomes) is “longer clearence half-life (t1/2) and/or lower intrinsic clearence (CLint) than hinokitiol”.
Take `Cc1ncc(-c2cccc(=O)c(O)c2)cc1F` [Ex.57, 4-(5-fluoro-6-methylpyridin-3-yl)-2-hydroxycyclohepta-2,4,6-trien-1-one]: in data set [2] (mouse, microsomes), the half-life was above 120 min and the microsomal CLint is below 11.6 µL/min/mg. Moreover, in the data set “Mouse 6-hour PK study”, the AUC(0-t) lay within 1500 to 5000 ng·h/mL, the Cmax lay in the range of 500 to 1500 ng/mL, the half-life was 75 to 299 min and the “mouse 6-hour PK properties compared to hinokitiol” value is “one or more improved mouse 6-hour PK properties compared to hinokitiol”. The “Caco2 shDMT1 transport FC @ 3 μM, 4h” value in data set [1] (Caco-2) was 0.01-0.5. The “Liposome Fe transport kefflux at 10 10 μM” value in data set [3] (Table 1) is recorded as 7.5-10. Besides, in data set [4] (human, microsomes), the half-life was above 120 min and the microsomal CLint is below 11.6 µL/min/mg.
In data set [2] (mouse, microsomes), `O=c1cccc(-c2ccc(F)cn2)cc1O` [Ex.3, 4-(5-fluoropyridin-2-yl)-2-hydroxycyclohepta-2,4,6-trien-1-one] yielded a half-life above 120 min and a microsomal CLint below 11.6 µL/min/mg. Also, in the data set “Mouse 6-hour PK study”, the AUC(0-t) lay within 5000 to 20000 ng·h/mL, the Cmax lay in the range of 1500 to 5000 ng/mL, the half-life is 75 to 299 min and the “mouse 6-hour PK properties compared to hinokitiol” value was “one or more improved mouse 6-hour PK properties compared to hinokitiol”. Further, the “Caco2 shDMT1 transport FC @ 3 μM, 4h” value in data set [1] (Caco-2) is on record as 0.01-0.5. Further, the “Liposome Fe transport kefflux at 10 10 μM” value in data set [3] (Table 1) is given as 5-7.5. Besides, in data set [4] (human, microsomes), the half-life is above 120 min and the microsomal CLint was below 11.6 µL/min/mg.
Take `CC(C)c1cccc(=O)c(O)c1` [hinokitiol, reference compound]: the microsomal CLint in data set [2] (mouse liver microsomes, Table 4, read-out: Mouse CLint) was 43.4 µL/min/mg; in data set [4] (human liver microsomes, Table 4, read-out: Human CLint), 150 µL/min/mg. Moreover, the half-life is 32 min in data set [2] (mouse liver microsomes, Table 4, read-out: Mouse t1/2) and 9.2 min in data set [4] (human liver microsomes, Table 4, read-out: Human t1/2). Moreover, the “Caco2 shDMT1 transport FC @ 3 μM, 4h” value in data set [1] (3 μM, 4 h, fold change normalized to hinokitiol (FC hino=1), Table 1) came out at 1; in data set [1] (3 μM, 4 h, fold change normalized to hinokitiol (FC hino=1), Table 2), 1.00. Besides, the “Liposome Fe transport Kefflux at 10 μM” value in data set [3] (Table 1) and in data set [3] (Table 2) was 7.77 each time.
On to `O=c1cccc(-c2cncc(F)c2F)cc1O` [Ex.2, 4-(4,5-difluoropyridin-3-yl)-2-hydroxycyclohepta-2,4,6-trien-1-one], for which the “Caco2 shDMT1 transport FC @ 3 μM, 4h” value in data set [1] (Caco-2) was 0.01-0.5. Further, in data set [3] (Table 1), the “Liposome Fe transport kefflux at 10 10 μM” value is given as 0.1-5.
Taken in the same sequence, the figures for `Cc1ncccc1-c1cccc(=O)c(O)c1` [Ex.53, 2-hydroxy-4-(2-methylpyridin-3-yl)cyclohepta-2,4,6-trien-1-one] were 0.01-0.5 and 0.1-5.
Taken in the same sequence, the figures for `Cc1ncc(-c2ccccc(=O)c2O)c(C)n1` [Ex.36, 3-(2,4-dimethylpyrimidin-5-yl)-2-hydroxycyclohepta-2,4,6-trien-1-one] were 0.01-0.5 and 5-7.5.
In the case of `O=c1ccccc(-c2cccc(F)n2)c1O` [Ex.69, 3-(6-fluoropyridin-2-yl)-2-hydroxycyclohepta-2,4,6-trien-1-one], the “Caco2 shDMT1 transport FC @ 3 μM, 4h” value in data set [1] (Caco-2) is 0.01-0.5. Moreover, in data set [3] (Table 2), the “Liposome Fe transport Kefflux at 10 μM” value is 10-25.
As to `COc1ncc(-c2cccc(=O)c(O)c2)cn1` [Ex.30, 2-hydroxy-4-(2-methoxypyrimidin-5-yl)cyclohepta-2,4,6-trien-1-one], the “Caco2 shDMT1 transport FC @ 3 μM, 4h” value in data set [1] (Caco-2) was 0.01-0.5. In addition, the “Liposome Fe transport kefflux at 10 10 μM” value in data set [3] (Table 1) is reported as 0.1-5.
